According to ChEMBL document CHEMBL1130868, “Synthesis of betulinic acid derivatives with activity against human melanoma” (1998):
Values after ≈ are worked out from the molar mass of the structure shown.

How the values were obtained:
KB = experiment: Cytotoxicity against human epidermoid carcinoma of the mouth (KB) cell line.; format: functional; details: read-out: ED50 (the source's name)
SK-MEL-2 = experiment: Cytotoxicity against cultured human melanoma (MEL-2) cell line.; format: functional; details: read-out: ED50 (the source's name)

Compound	EC50 (KB)	EC50 (SK-MEL-2)
CO/N=C1\CC[C@]2(C)[C@H]3CC[C@@H]4[C@H]5[C@H](C(C)C)CC[C@]5(C(=O)O)CC[C@@]4(C)[C@]3(C)CC[C@H]2C1(C)C	> 20 µg/mL	> 20 µg/mL
CC(C)[C@@H]1CC[C@]2(C(=O)O)CC[C@]3(C)[C@H](CC[C@@H]4[C@@]5(C)CC/C(=N\O)C(C)(C)[C@@H]5CC[C@]43C)[C@@H]12	> 20 µg/mL	2.2 µg/mL (≈ 4.66 µM)
C=C(C)[C@@H]1CC[C@]2(C(=O)O)CC[C@]3(C)[C@H](CC[C@@H]4[C@@]5(C)CC/C(=N\OC)C(C)(C)[C@@H]5CC[C@]43C)[C@@H]12	4.3 µg/mL (≈ 8.89 µM)	8.3 µg/mL (≈ 17.2 µM)
C=C(C)[C@@H]1CC[C@]2(C)CC[C@]3(C)[C@H](CC[C@@H]4[C@@]5(C)CC[C@H](OC(=O)c6ccccc6)C(C)(C)[C@@H]5CC[C@]43C)[C@@H]12	> 20 µg/mL	> 20 µg/mL
C=C(C)[C@@H]1CC[C@]2(/C=N/OC)CC[C@]3(C)[C@H](CC[C@@H]4[C@@]5(C)CC/C(=N\OC)C(C)(C)[C@@H]5CC[C@]43C)[C@@H]12	20 µg/mL (≈ 40.3 µM)	> 20 µg/mL
C=C(C)[C@@H]1CC[C@]2(C(=O)O)CC[C@]3(C)[C@H](CC[C@@H]4[C@@]5(C)CC[C@H](N)C(C)(C)[C@@H]5CC[C@]43C)[C@@H]12		1.3 µg/mL (≈ 2.85 µM)
C=C(C)[C@@H]1CC[C@]2(/C=N/O)CC[C@]3(C)[C@H](CC[C@@H]4[C@@]5(C)CC/C(=N\O)C(C)(C)[C@@H]5CC[C@]43C)[C@@H]12 [BETULIN-3,28-DIOXIME]	3.3 µg/mL (≈ 7.04 µM)	2.2 µg/mL (≈ 4.69 µM)
C=C(C)[C@@H]1CC[C@]2(C(=O)O)CC[C@]3(C)[C@H](CC[C@@H]4[C@@]5(C)CC[C@H](O)C(C)(C)[C@@H]5CC[C@]43C)[C@@H]12 [BETULINIC ACID]	> 20 µg/mL	1.2 µg/mL (≈ 2.63 µM)
C=C(C)[C@@H]1CC[C@]2(CO)CC[C@]3(C)[C@H](CC[C@@H]4[C@@]5(C)CC[C@H](O)C(C)(C)[C@@H]5CC[C@]43C)[C@@H]12 [BETULIN]	> 20 µg/mL	> 20 µg/mL
C=C(C)[C@@H]1CC[C@]2(C=O)CC[C@]3(C)[C@H](CC[C@@H]4[C@@]5(C)CCC(=O)C(C)(C)[C@@H]5CC[C@]43C)[C@@H]12 [BETULONAL]	12.9 µg/mL (≈ 29.4 µM)	7.4 µg/mL (≈ 16.9 µM)
C=C(C)[C@@H]1CC[C@]2(C(=O)O)CC[C@]3(C)[C@H](CC[C@@H]4[C@@]5(C)CCC(=O)C(C)(C)[C@@H]5CC[C@]43C)[C@@H]12 [BETUNOLIC ACID]	2.5 µg/mL (≈ 5.5 µM)	0.9 µg/mL (≈ 1.98 µM)
CC(C)[C@@H]1CC[C@]2(C(=O)O)CC[C@]3(C)[C@H](CC[C@@H]4[C@@]5(C)CC[C@H](O)C(C)(C)[C@@H]5CC[C@]43C)[C@@H]12 [DIHYDROBETULINIC ACID]	> 20 µg/mL	5.8 µg/mL (≈ 12.6 µM)
CC(C)[C@@H]1CC[C@]2(C(=O)O)CC[C@]3(C)[C@H](CC[C@@H]4[C@@]5(C)CCC(=O)C(C)(C)[C@@H]5CC[C@]43C)[C@@H]12 [DIHYDROBETULONIC ACID]	> 20 µg/mL	0.7 µg/mL (≈ 1.53 µM)
C=C(C)[C@@H]1CC[C@]2(C)CC[C@]3(C)[C@H](CC[C@@H]4[C@@]5(C)CC[C@H](O)C(C)(C)[C@@H]5CC[C@]43C)[C@@H]12 [LUPEOL]	> 20 µg/mL	17.6 µg/mL (≈ 41.2 µM)
C=C(C)[C@@H]1CC[C@]2(C(=O)OC)CC[C@]3(C)[C@H](CC[C@@H]4[C@@]5(C)CC[C@H](O)C(C)(C)[C@@H]5CC[C@]43C)[C@@H]12 [METHYL BETULINATE]	11.8 µg/mL (≈ 25.1 µM)	8.3 µg/mL (≈ 17.6 µM)
